Results published in patent publication US8889370B2, “Method of determining inhibitors of coagulation” (Siemens Healthcare Diagnostics Products GmbH, priority 2010, dated 2014).
Where two headings read alike, the source gives them in different places.

Biological target: T1, bovine thrombin (Bos taurus, UniProt P00735)
T1 construct: a lyophilized thrombin reagent consisting of bovine thrombin; purchased Siemens Healthcare Diagnostics (hirudin activity assay, thrombin reagent)
Test: Determination of the thrombin binding constant (Ki) of peptide aldehyde ligands, chromogenic assay with hirudin activity assay reagents, Dixon plot
Assay type: biochemical
Experimental: The kinetic data of the peptide aldehyde ligands were determined in chromogenic assay formats by measuring the rate of hydrolysis of chromogenic peptide substrates which compete with the peptide aldehyde ligands for binding to the active site of the particular enzyme, at various substrate concentrations and peptide aldehyde-ligand concentrations. The binding constant (Ki) was determined by a known method (Dixon, M., 1953, Biochem J, 55, 170-171).
The thrombin binding constant was determined using the reagents of the hirudin activity assay from Siemens Healthcare Diagnostics. The hirudin activity assay comprises a lyophilized thrombin reagent consisting of bovine thrombin, a heparin inhibitor and aprotinin, a lyophilized chromogenic substrate reagent with a concentration of 4 mmol/l tos-Gly-Pro-Arg-ANBA-IPA (tosylglycyl-L-propyl-arginyl-5-amino-2-nitrobenzoyliso-propylamide) after reconstitution. The thrombin reagent was reconstituted in buffer solution (trishydroxymethylamino-methane, NaCl, pH 8.2). Dilutions of the substrate reagent were prepared with deionized water. The peptide aldehyde ligands prepared according to example 1 were dissolved in water and used as sample. The B-r-G-R—H ligand was used in a concentration range from 26.1 to 0.815 μM. The B-f-P—R—H ligand was used in a concentration range from 26.1 to 0 μM. The assays were carried out automatically in a BCS® XP coagulation analyzer (Siemens Healthcare Diagnostics, Marburg, Germany).
A reaction mix was mixed together as follows:
30 μl of sample (peptide aldehyde ligand B-r-G-R—H or B-f-P—R—H),
150 μl of thrombin reagent,
50 μl of chromogenic substrate reagent (tos-Gly-Pro-Arg-ABNA-IPA).
The reaction rate in mE/min was determined on the basis of the increase in optical density of the reaction mix at a wavelength of 405 nm. For this, the optical density of the reaction mixes was determined in time intervals of from 15 to 40 seconds for the B-f-P—R—H peptide aldehyde ligand or 5-16 seconds for the B-r-G-R—H peptide aldehyde ligand.
Reversibly and irreversibly binding ligands can be distinguished by their reaction kinetics. Plotting 1/v, where v is the reaction rate, as a function of the ligand concentration (i) at a constant concentration (S) of a cleavable substrate produces a line. When using two or more different substrate concentrations (S1, S2 . . . SN), said lines intersect at a single point. The x axis value of this point corresponds to −Ki, with Ki corresponding to the binding constant, see, for example, Klebe, G., Wirkstoffdesign, 2nd edition, Spektrum Akademischer Verlag, Heidelberg, Germany, 2009, pages 52-62 and Dixon, M., 1953, Biochem J, 55, 170-171. With an irreversible inhibition, the curves meet at a single point on the x axis, which again corresponds to −Ki.

## N=C(N)NCCC[C@@H](C=O)NC(=O)[C@@H]1CCCN1C(=O)[C@@H](Cc1ccccc1)NC(=O)CCC(=O)NCCCOCCOCCOCCCNC(=O)CCCC[C@@H]1SC[C@@H]2NC(=O)N[C@@H]21 [B-f-P-R-H, biotinyl-Ttds-D-Phe-Pro-Arg-H]
CB-f-P-R-H 0.02038 μM, Csubstrate = 0.5 mM, not in the linear region, excluded from regression
  1/Reaction rate: 1.869 min/E
CB-f-P-R-H 0.02038 μM, Csubstrate = 2 mM
  1/Reaction rate: 0.4138 min/E
CB-f-P-R-H 0.02038 μM, Csubstrate = 4 mM
  1/Reaction rate: 0.3846 min/E
CB-f-P-R-H 0.04076 μM, Csubstrate = 0.5 mM, not in the linear region, excluded from regression
  1/Reaction rate: 1.747 min/E
CB-f-P-R-H 0.04076 μM, Csubstrate = 2 mM
  1/Reaction rate: 0.4247 min/E
CB-f-P-R-H 0.04076 μM, Csubstrate = 4 mM
  1/Reaction rate: 0.393 min/E
CB-f-P-R-H 0.08152 μM, Csubstrate = 0.5 mM
  1/Reaction rate: 1.565 min/E
CB-f-P-R-H 0.08152 μM, Csubstrate = 2 mM
  1/Reaction rate: 0.4594 min/E
CB-f-P-R-H 0.08152 μM, Csubstrate = 4 mM
  1/Reaction rate: 0.4143 min/E
CB-f-P-R-H 0.16304 μM, Csubstrate = 0.5 mM
  1/Reaction rate: 1.711 min/E
CB-f-P-R-H 0.16304 μM, Csubstrate = 2 mM
  1/Reaction rate: 0.521 min/E
CB-f-P-R-H 0.16304 μM, Csubstrate = 4 mM
  1/Reaction rate: 0.4395 min/E
CB-f-P-R-H 0.20380 μM, Csubstrate = 0.5 mM
  1/Reaction rate: 1.638 min/E
CB-f-P-R-H 0.20380 μM, Csubstrate = 2 mM
  1/Reaction rate: 0.5061 min/E
CB-f-P-R-H 0.20380 μM, Csubstrate = 4 mM
  1/Reaction rate: 0.4298 min/E
CB-f-P-R-H 0.32609 μM, Csubstrate = 0.5 mM
  1/Reaction rate: 2.382 min/E
CB-f-P-R-H 0.32609 μM, Csubstrate = 2 mM
  1/Reaction rate: 0.6613 min/E
CB-f-P-R-H 0.32609 μM, Csubstrate = 4 mM
  1/Reaction rate: 0.5012 min/E
CB-f-P-R-H 0.40761 μM, Csubstrate = 0.5 mM
  1/Reaction rate: 2.645 min/E
CB-f-P-R-H 0.40761 μM, Csubstrate = 2 mM
  1/Reaction rate: 0.7008 min/E
CB-f-P-R-H 0.40761 μM, Csubstrate = 4 mM
  1/Reaction rate: 0.5334 min/E
CB-f-P-R-H 0.65217 μM, Csubstrate = 0.5 mM
  1/Reaction rate: 4.162 min/E
CB-f-P-R-H 0.65217 μM, Csubstrate = 2 mM
  1/Reaction rate: 1.029 min/E
CB-f-P-R-H 0.65217 μM, Csubstrate = 4 mM
  1/Reaction rate: 0.6737 min/E
CB-f-P-R-H 0.81522 μM, Csubstrate = 0.5 mM
  1/Reaction rate: 4.775 min/E
CB-f-P-R-H 0.81522 μM, Csubstrate = 2 mM
  1/Reaction rate: 1.169 min/E
CB-f-P-R-H 0.81522 μM, Csubstrate = 4 mM
  1/Reaction rate: 0.7274 min/E
CB-f-P-R-H 1.30435 μM, Csubstrate = 0.5 mM
  1/Reaction rate: 7.175 min/E
CB-f-P-R-H 1.30435 μM, Csubstrate = 2 mM
  1/Reaction rate: 1.793 min/E
CB-f-P-R-H 1.30435 μM, Csubstrate = 4 mM
  1/Reaction rate: 0.9974 min/E
CB-f-P-R-H 1.63043 μM, Csubstrate = 0.5 mM
  1/Reaction rate: 8.491 min/E
CB-f-P-R-H 1.63043 μM, Csubstrate = 2 mM
  1/Reaction rate: 2.164 min/E
CB-f-P-R-H 1.63043 μM, Csubstrate = 4 mM
  1/Reaction rate: 1.183 min/E
CB-f-P-R-H 2.60870 μM, Csubstrate = 0.5 mM
  1/Reaction rate: 13.19 min/E
CB-f-P-R-H 2.60870 μM, Csubstrate = 2 mM
  1/Reaction rate: 3.37 min/E
CB-f-P-R-H 2.60870 μM, Csubstrate = 4 mM
  1/Reaction rate: 1.775 min/E
CB-f-P-R-H 3.26087 μM, Csubstrate = 0.5 mM
  1/Reaction rate: 15.77 min/E
CB-f-P-R-H 3.26087 μM, Csubstrate = 2 mM
  1/Reaction rate: 4.026 min/E
CB-f-P-R-H 3.26087 μM, Csubstrate = 4 mM
  1/Reaction rate: 2.13 min/E
CB-f-P-R-H 5.21739 μM, Csubstrate = 0.5 mM
  1/Reaction rate: 24.76 min/E
CB-f-P-R-H 5.21739 μM, Csubstrate = 2 mM
  1/Reaction rate: 6.165 min/E
CB-f-P-R-H 5.21739 μM, Csubstrate = 4 mM
  1/Reaction rate: 3.251 min/E
CB-f-P-R-H 6.52174 μM, Csubstrate = 0.5 mM
  1/Reaction rate: 32.28 min/E
CB-f-P-R-H 6.52174 μM, Csubstrate = 2 mM
  1/Reaction rate: 7.856 min/E
CB-f-P-R-H 6.52174 μM, Csubstrate = 4 mM
  1/Reaction rate: 4.089 min/E
CB-f-P-R-H 9.78261 μM, Csubstrate = 0.5 mM
  1/Reaction rate: 43.9 min/E
CB-f-P-R-H 9.78261 μM, Csubstrate = 2 mM
  1/Reaction rate: 11.18 min/E
CB-f-P-R-H 9.78261 μM, Csubstrate = 4 mM
  1/Reaction rate: 5.843 min/E
CB-f-P-R-H 13.04348 μM, Csubstrate = 0.5 mM
  1/Reaction rate: 59.12 min/E
CB-f-P-R-H 13.04348 μM, Csubstrate = 2 mM
  1/Reaction rate: 14.43 min/E
CB-f-P-R-H 13.04348 μM, Csubstrate = 4 mM
  1/Reaction rate: 7.611 min/E
CB-f-P-R-H 16.30435 μM, Csubstrate = 0.5 mM
  1/Reaction rate: 74.55 min/E
CB-f-P-R-H 16.30435 μM, Csubstrate = 2 mM
  1/Reaction rate: 18.09 min/E
CB-f-P-R-H 16.30435 μM, Csubstrate = 4 mM
  1/Reaction rate: 9.302 min/E
CB-f-P-R-H 26.08696 μM, Csubstrate = 0.5 mM
  1/Reaction rate: 121.7 min/E
CB-f-P-R-H 26.08696 μM, Csubstrate = 2 mM
  1/Reaction rate: 28.41 min/E
CB-f-P-R-H 26.08696 μM, Csubstrate = 4 mM
  1/Reaction rate: 14.59 min/E
Csubstrate 0.5 mM
  Intersect of regression curve 1/reaction rate vs ligand concentration: 0.9175 min/E
  Slope of regression curve 1/reaction rate vs ligand concentration: 4.5718 min/E μM
Csubstrate 2 mM
  Intersect of regression curve 1/reaction rate vs ligand concentration: 0.04059 min/E
  Slope of regression curve 1/reaction rate vs ligand concentration: 1.0812 min/E μM
Csubstrate 4 mM
  Intersect of regression curve 1/reaction rate vs ligand concentration: 0.3497 min/E
  Slope of regression curve 1/reaction rate vs ligand concentration: 0.5500 min/E μM
Average of three Ki values, read-out: KiM average thrombin binding constant
  Ki: 131 nM
Intersection of regression curves Csubstrate 2 and 0.5 mM, read-out: Ki2&3 thrombin binding constant
  Ki: 147 nM
Intersection of regression curves Csubstrate 4 and 0.5 mM, read-out: Ki1&3 thrombin binding constant
  Ki: 141 nM
Intersection of regression curves Csubstrate 4 and 2 mM, read-out: Ki1&2 thrombin binding constant
  Ki: 106 nM
Intersections of regression curves not on the x axis
  binding of the peptide aldehyde with thrombin (reversible or irreversible): reversible
